According to ChEMBL document CHEMBL1201862, “PubChem BioAssay data set” (2004):
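Method: 48-hour compound exposure of cells in 96-well plates, five concentrations, linear interpolation of endpoints. Here, GI50 denotes the concentration required for 50% inhibition of growth.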 The source made the active and inactive calls. Cut-off read from the data, not from the text of the source: active = GI50 up to about 1.1 µM and inactive = higher.

What was measured:
Test in all cases: NCI-60 cell line screen, 48 h
RXF 393 = test system: RXF 393
UACC-62 = test system: UACC-62
OVCAR-3 = test system: OVCAR-3
MOLT-4 = test system: MOLT-4
SNB-75 = test system: SNB-75
NCI-H460 = test system: NCI-H460
CCRF-CEM = test system: CCRF-CEM
SK-MEL-28 = test system: SK-MEL-28
HOP-92 = test system: HOP-92
PC-3 = test system: PC-3
HCT-15 = test system: HCT-15
OVCAR-5 = test system: OVCAR-5
DU-145 = test system: DU-145
MCF7 = test system: MCF7
SN12C = test system: SN12C
SNB-19 = test system: SNB-19
MDA-MB-231 = test system: MDA-MB-231
KM12 = test system: KM12

Compound	GI50 (RXF 393)	GI50 (UACC-62)	GI50 (OVCAR-3)	GI50 (MOLT-4)	GI50 (SNB-75)	GI50 (NCI-H460)	GI50 (CCRF-CEM)	GI50 (SK-MEL-28)	GI50 (HOP-92)	GI50 (PC-3)	GI50 (HCT-15) [µM]	GI50 (OVCAR-5)	GI50 (DU-145)	GI50 (MCF7)	GI50 (SN12C)	GI50 (SNB-19)	GI50 (MDA-MB-231)	GI50 (KM12)
Oc1ccc(CCNCc2cc3c(cc2Br)OCO3)cc1	69.5 µM (inactive)	52.7 µM (inactive)	30.1 µM (inactive)	32.6 µM (inactive)	18.4 µM (inactive)	57.8 µM (inactive)	73.8 µM (inactive)	37.2 µM (inactive)	> 100 µM (inactive)	46.9 µM (inactive)	> 100	> 100 µM (inactive)	> 100 µM (inactive)	70.1 µM (inactive)	66.8 µM (inactive)	> 100 µM (inactive)	55.3 µM (inactive)	–
CC(=O)OCC1OC(n2c(N)c(C#N)c(-c3cccc(Cl)c3)c(C#N)c2=S)C(OC(C)=O)C(OC(C)=O)C1OC(C)=O (configuration not stated)	3.9 µM (inactive)	26.9 µM (inactive)	14.8 µM (inactive)	11.9 µM (inactive)	22.2 µM (inactive)	24.8 µM (inactive)	3.31 µM (inactive)	38.7 µM (inactive)	23 µM (inactive)	24.9 µM (inactive)	22.5	44.8 µM (inactive)	18.2 µM (inactive)	21.5 µM (inactive)	37.6 µM (inactive)	31.5 µM (inactive)	18.9 µM (inactive)	15.5 µM (inactive)
C1=N\CCNCC/N=C\c2ccc(cc2)OCc2cccc(n2)COc2ccc/1cc2	98.9 µM (inactive)	> 100 µM (inactive)	> 100 µM (inactive)	> 100 µM (inactive)	23 µM (inactive)	> 100 µM (inactive)	> 100 µM (inactive)	> 100 µM (inactive)	> 100 µM (inactive)	78.2 µM (inactive)	97.1	> 100 µM (inactive)	> 100 µM (inactive)	> 100 µM (inactive)	> 100 µM (inactive)	49 µM (inactive)	30.7 µM (inactive)	> 100 µM (inactive)
Nc1cc2c3c(cccc3c1)C(=O)N(c1ccc(OCCN3CCCC3)cc1)C2=O	14.2 µM (inactive)	16.6 µM (inactive)	16 µM (inactive)	18.5 µM (inactive)	3.94 µM (inactive)	11.5 µM (inactive)	23.3 µM (inactive)	20.3 µM (inactive)	17.8 µM (inactive)	21.4 µM (inactive)	13.8	21.1 µM (inactive)	27.4 µM (inactive)	17.3 µM (inactive)	21.8 µM (inactive)	17.2 µM (inactive)	24.8 µM (inactive)	16.1 µM (inactive)
CC(C)c1nc(Cl)c(Cl)c(Cl)n1	2.05 µM (inactive)	8.41 µM (inactive)	1.99 µM (inactive)	1.8 µM (inactive)	11.2 µM (inactive)	12.6 µM (inactive)	1.07 µM (active)	14.2 µM (inactive)	3.24 µM (inactive)	4.31 µM (inactive)	0.695	5.77 µM (inactive)	7.69 µM (inactive)	1.75 µM (inactive)	4.24 µM (inactive)	18.6 µM (inactive)	8.85 µM (inactive)	8.39 µM (inactive)
CCOC(=O)CCSc1nc2ccc(I)cc2c(=O)n1Cc1ccccc1	26.9 µM (inactive)	27.4 µM (inactive)	17.9 µM (inactive)	–	30.3 µM (inactive)	22.6 µM (inactive)	15.8 µM (inactive)	> 65.6 µM (inactive)	13.6 µM (inactive)	41.7 µM (inactive)	18	> 83.8 µM (inactive)	37.1 µM (inactive)	29.1 µM (inactive)	31.8 µM (inactive)	38.2 µM (inactive)	28.2 µM (inactive)	22.3 µM (inactive)
CCCC/C=C/C/C=C/CCCCCCCCC(=O)OCC1CCCN2CCCCC12 (configuration not stated)	> 100 µM (inactive)	48.6 µM (inactive)	> 100 µM (inactive)	> 100 µM (inactive)	> 100 µM (inactive)	> 100 µM (inactive)	28.5 µM (inactive)	> 100 µM (inactive)	31.7 µM (inactive)	> 100 µM (inactive)	> 100	> 100 µM (inactive)	> 100 µM (inactive)	> 100 µM (inactive)	> 100 µM (inactive)	> 100 µM (inactive)	> 100 µM (inactive)	> 100 µM (inactive)
c1ccc(CSc2ccccc2CN2CCN(Cc3ccccc3SCc3ccccc3)CCN(Cc3ccccc3SCc3ccccc3)CC2)cc1	1.77 µM (inactive)	1.43 µM (inactive)	0.466 µM (active)	1.63 µM (inactive)	1.6 µM (inactive)	1.19 µM (inactive)	2.35 µM (inactive)	1.88 µM (inactive)	0.359 µM (active)	1.26 µM (inactive)	1.61	1.64 µM (inactive)	2.94 µM (inactive)	1.48 µM (inactive)	1.72 µM (inactive)	1.92 µM (inactive)	1.51 µM (inactive)	1.58 µM (inactive)
